Earlier results on two molecules are cited in patent publication US20120148652A1, “METHOD FOR INCORPORATING MEDICINE INTO A PLANT” (EARTH CHEMICAL CO., LTD., priority 2009, published 2012).

Each structure is given as a SMILES string.

The conditions of the data set: 20° C., reference value.

Regarding `CC(C)=CC1C(C(=O)OC(C#N)c2cccc(Oc3ccccc3)c2)C1(C)C` (stereo not drawn) [d,d-T-cyphenothrin], the vapor pressure is listed as < 1.33×10^−7 hPa. Regarding `CC1(C)[C@H](C=C(Cl)Cl)[C@H]1C(=O)OCc1c(F)c(F)cc(F)c1F` [transfluthrin, Transfluthrin], the vapor pressure is reported as 4.0×10^−6 hPa.
